Reference: ChEMBL document CHEMBL4609983, “Pan-specific and partially selective dye-labeled peptidic inhibitors of the polycomb paralog proteins” (Bioorg Med Chem, 2020)
pIC50, pKd: −log10 of the molar value. Non-standard residues stand in square brackets, D forms with d. Residues, ends and D or L forms follow the SMILES beside them. *: point of attachment. X1 = O=C(O)c1cc(NC(=S)*)ccc1-c1c2ccc(=O)cc-2oc2cc(O)ccc12; Lys(Me3) = C[N+](C)(C)CCCC[C@H](N)C(=O)O; Benzoyl(4-Br) = O=C(c1ccc(Br)cc1)*; Gly(cPent) = N[C@H](C(=O)O)C1CCCC1; Abu = CC[C@H](N)C(=O)O; βAla = NCCC(=O)O

What was measured:
[1] = target: T1, Chromobox protein homolog 6 (Homo sapiens, UniProt O95503); assay: Inhibition of CBX6 (unknown origin) assessed as […] by competitive FP assay
T1 sequence (O95503 whole entry): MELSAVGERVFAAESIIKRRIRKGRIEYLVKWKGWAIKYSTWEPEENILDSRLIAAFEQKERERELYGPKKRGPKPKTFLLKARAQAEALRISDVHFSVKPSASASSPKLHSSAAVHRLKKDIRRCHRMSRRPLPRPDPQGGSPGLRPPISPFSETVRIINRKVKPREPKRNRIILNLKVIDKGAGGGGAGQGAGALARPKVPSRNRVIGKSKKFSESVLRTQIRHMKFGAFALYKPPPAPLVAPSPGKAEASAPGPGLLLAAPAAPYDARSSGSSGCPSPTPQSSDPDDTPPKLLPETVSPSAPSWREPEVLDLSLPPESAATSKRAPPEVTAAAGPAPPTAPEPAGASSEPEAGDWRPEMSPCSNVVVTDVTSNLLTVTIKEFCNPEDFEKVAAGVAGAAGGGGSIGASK

[2] = target: T2, Chromobox protein homolog 7 (Homo sapiens, UniProt O95931); assay: Inhibition of CBX7 (unknown origin) assessed as […] by competitive FP assay
T2 sequence (O95931 whole entry): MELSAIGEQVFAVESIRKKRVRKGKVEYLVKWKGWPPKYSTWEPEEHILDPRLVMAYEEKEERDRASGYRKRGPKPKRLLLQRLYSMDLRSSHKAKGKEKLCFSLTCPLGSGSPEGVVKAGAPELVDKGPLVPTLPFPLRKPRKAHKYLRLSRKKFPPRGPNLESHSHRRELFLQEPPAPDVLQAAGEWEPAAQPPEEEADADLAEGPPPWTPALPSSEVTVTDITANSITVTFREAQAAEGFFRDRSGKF

[3] = target: T3, Chromobox protein homolog 8 (Homo sapiens, UniProt Q9HC52); assay: Inhibition of CBX8 (unknown origin) assessed as […] by competitive FP assay
T3 sequence (Q9HC52 whole entry): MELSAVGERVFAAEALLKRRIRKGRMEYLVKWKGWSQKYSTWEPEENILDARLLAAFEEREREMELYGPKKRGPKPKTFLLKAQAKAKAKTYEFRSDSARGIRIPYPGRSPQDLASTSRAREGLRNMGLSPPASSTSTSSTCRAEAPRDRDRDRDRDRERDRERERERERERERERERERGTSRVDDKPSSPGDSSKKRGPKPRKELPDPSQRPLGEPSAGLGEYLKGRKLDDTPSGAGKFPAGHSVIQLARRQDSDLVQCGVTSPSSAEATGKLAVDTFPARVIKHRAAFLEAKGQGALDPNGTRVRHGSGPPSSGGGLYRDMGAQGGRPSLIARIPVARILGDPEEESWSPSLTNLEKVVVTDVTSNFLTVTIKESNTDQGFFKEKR

Homo sapiens [4] = species on record: Homo sapiens; assay: Selectivity ratio of IC50 for CBX7 (unknown origin) to IC50 for CBX8 (unknown origin)
Homo sapiens [5] = species on record: Homo sapiens; assay: Selectivity ratio of IC50 for CBX4 (unknown origin) to IC50 for CBX7 (unknown origin)
[6] = target: Chromobox protein homolog 1 (Homo sapiens, UniProt P83916); assay: Binding affinity to CBX1 (unknown origin) assessed as dissociation constant by fluorescence polarization analysis
Chromobox protein homolog 1, sequence (P83916 whole entry): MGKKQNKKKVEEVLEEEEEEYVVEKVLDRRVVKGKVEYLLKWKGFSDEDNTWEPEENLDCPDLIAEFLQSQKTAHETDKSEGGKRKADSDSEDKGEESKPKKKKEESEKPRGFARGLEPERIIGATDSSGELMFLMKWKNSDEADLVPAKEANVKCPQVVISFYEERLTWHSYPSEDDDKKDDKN

[7] = target: T4, Chromobox protein homolog 2 (Homo sapiens, UniProt Q14781); assay: Binding affinity to CBX2 (unknown origin) assessed as dissociation constant by fluorescence polarization analysis
T4 sequence (Q14781 whole entry): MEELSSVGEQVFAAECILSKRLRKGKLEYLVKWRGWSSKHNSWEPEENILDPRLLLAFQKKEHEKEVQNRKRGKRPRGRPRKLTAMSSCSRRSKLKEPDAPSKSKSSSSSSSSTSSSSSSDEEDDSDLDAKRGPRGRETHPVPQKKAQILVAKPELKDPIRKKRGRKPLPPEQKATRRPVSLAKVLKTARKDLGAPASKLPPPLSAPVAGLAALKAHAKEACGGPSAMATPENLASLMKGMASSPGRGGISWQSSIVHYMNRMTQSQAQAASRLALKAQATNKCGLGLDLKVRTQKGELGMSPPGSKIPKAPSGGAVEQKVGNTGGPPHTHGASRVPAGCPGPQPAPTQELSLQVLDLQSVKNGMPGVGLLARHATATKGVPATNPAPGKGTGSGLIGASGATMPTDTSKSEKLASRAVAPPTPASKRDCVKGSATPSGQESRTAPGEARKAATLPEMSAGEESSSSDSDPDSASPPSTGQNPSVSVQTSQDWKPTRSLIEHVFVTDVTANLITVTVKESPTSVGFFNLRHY

[8] = target: T5, E3 SUMO-protein ligase CBX4 (Homo sapiens, UniProt O00257); assay: Binding affinity to CBX4 (unknown origin) assessed as dissociation constant by fluorescence polarization analysis
T5 sequence (O00257 whole entry): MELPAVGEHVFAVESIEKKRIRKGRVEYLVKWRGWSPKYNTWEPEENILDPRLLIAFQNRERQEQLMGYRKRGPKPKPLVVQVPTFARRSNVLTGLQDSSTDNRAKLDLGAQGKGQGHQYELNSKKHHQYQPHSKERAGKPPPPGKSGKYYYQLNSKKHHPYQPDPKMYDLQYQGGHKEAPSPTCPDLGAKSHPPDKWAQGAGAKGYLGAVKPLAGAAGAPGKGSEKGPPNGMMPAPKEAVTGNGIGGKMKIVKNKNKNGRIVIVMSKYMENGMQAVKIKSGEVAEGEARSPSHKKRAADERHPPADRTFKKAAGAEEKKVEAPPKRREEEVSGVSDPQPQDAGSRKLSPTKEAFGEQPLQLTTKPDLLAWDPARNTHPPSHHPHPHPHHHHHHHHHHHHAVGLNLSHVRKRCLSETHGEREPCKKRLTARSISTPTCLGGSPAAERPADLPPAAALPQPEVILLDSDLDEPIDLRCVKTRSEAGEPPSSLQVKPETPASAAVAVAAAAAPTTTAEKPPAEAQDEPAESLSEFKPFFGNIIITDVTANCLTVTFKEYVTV

[9] = target: T1, Chromobox protein homolog 6; assay: Binding affinity to CBX6 (unknown origin) assessed as dissociation constant by fluorescence polarization analysis
[10] = target: T2, Chromobox protein homolog 7; assay: Binding affinity to CBX7 (unknown origin) assessed as dissociation constant by fluorescence polarization analysis
[11] = target: T3, Chromobox protein homolog 8; assay: Binding affinity to CBX8 (unknown origin) assessed as dissociation constant by fluorescence polarization analysis
[12] = Drug uptake in cytoplasm of human TOV21G cells by live cell imaging analysis; assay type: ADME, cell-based
[13] = Drug uptake in cytoplasm of human PC3 cells by live cell imaging analysis; assay type: ADME, cell-based; settings: pc-3
[14] = Drug uptake in human TOV21G cells assessed as endosomal entrapment by measuring characteristic punctate dots in the cytoplasm at 10 uM by cell imaging analysis; assay type: ADME, cell-based
[15] = Drug uptake in human PC3 cells assessed as endosomal entrapment by measuring characteristic punctate dots in the cytoplasm at 10 uM by cell imaging analysis; assay type: ADME, cell-based; settings: pc-3, 10 µM
[16] = Drug uptake in human TOV21G cells by flow cytometric analysis; assay type: ADME, cell-based
[17] = Drug uptake in nucleus of human PC3 cells by live cell imaging analysis; assay type: ADME, cell-based; settings: pc-3
[18] = Drug uptake in nucleus of human TOV21G cells by live cell imaging analysis; assay type: ADME, cell-based
TOV21G [19] = assay: Effect on cell cycle in human TOV21G cells by measuring cells distribution at G0 phase; assay type: cell-based
TOV21G [20] = assay: Effect on cell cycle in human TOV21G cells by measuring cells distribution at G1 phase; assay type: cell-based
TOV21G [21] = assay: Effect on cell cycle in human TOV21G cells by measuring cells distribution at S phase; assay type: cell-based
TOV21G [22] = assay: Effect on cell cycle in human TOV21G cells by measuring cells distribution at G2/M phase; assay type: cell-based

`CC[C@H](NC(=O)[C@H](Cc1ccccc1)NC(=O)c1ccc(Br)cc1)C(=O)N[C@H](C(=O)N[C@@H](CCCC[N+](C)(C)C)C(=O)N[C@@H](CO)C(=O)N[C@@H](CCC(=O)O)C(N)=O)C1CCCC1` ({Benzoyl(4-Br)}-F[Abu][Gly(cPent)][Lys(Me3)]SE-NH2) showed a pIC50 [1] of 5.55, a pIC50 [2] of 5.08 and a pIC50 [3] of 5.42. It also gave a Ratio IC50 (Homo sapiens [4]) of 2 and a Ratio IC50 (Homo sapiens [5]) of 10.
`CC(C)C[C@H](NC(=O)[C@H](C)NC(=O)[C@H](Cc1ccccc1)NC(=O)[C@H](Cc1ccccc1)NC(=O)CCNC(=S)Nc1ccc(-c2c3ccc(=O)cc-3oc3cc(O)ccc23)c(C(=O)O)c1)C(=O)N[C@@H](CCCC[N+](C)(C)C)C(=O)N[C@@H](CO)C(N)=O` ({X1-βAla}-FFAL[Lys(Me3)]S-NH2) showed a pKd [6] of 4.33, a pKd [7] of 5.51 and a pKd [8] of 5.77. It also gave a pKd [9] of 5.96, a pKd [10] of 5.80 and a pKd [11] of 5.77. The Drug uptake [12] was “Not Active”, the Drug uptake [13] was “Not Active” and the Drug uptake [14] was “Active”. The Drug uptake [15] was “Active”, the Drug uptake [16] was “Active” and the Drug uptake [17] was “Not Active”. The Drug uptake [18] was “Not Active”, the Activity (TOV21G [19]) was “Non-Toxic” and the Activity (TOV21G [20]) was “Non-Toxic”. The Activity (TOV21G [21]) was “Non-Toxic” and the Activity (TOV21G [22]) was “Non-Toxic”.
